Data from patent US11472766B2, “Lipid nanoparticle composition” (Suzhou Abogen Biosciences Co., Ltd., priority 2020, dated 2022).

Columns and labels:
[1] = tested on: human erythropoietin (hEPO) mRNA; experiment: Animal study: hEPO expression after tail vein injection of LNPs encapsulating hEPO mRNA (serum ELISA); assay type: in vivo; conditions: hEPO level, female ICR mice, 0.5 mg/kg, 6 hours post administration; for Expression at 6 h: Table 2; for Expression at 6 h (μg/ml): class symbols, Table 3
Method: Lipid nanoparticles comprising compounds 1-10 encapsulating human erythropoietin (hEPO) mRNA were systemically administered to 6-8 week old female ICR mice (Xipuer-Bikai, Shanghai) at 0.5 mg/kg dose by tail vein injection and mice blood were sampled at specific time points (e.g., 6 hours) post administration. In addition to the aforementioned tested groups, lipid nanoparticles comprising dilinoleylmethyl-4-dimethylaminobutyrate (DLin-MC3-DMA, usually abbreviated to MC3) encapsulating hEPO mRNA were similarly administered at the same dose to age and gender comparative groups of mice as a positive control.
Mice were euthanized by CO2 overdoses after the last sampling time point. Serum were separated from total blood by centrifugation at 5000 g for 10 minutes at 4° C., snap-frozen and stored at −80° C. for analysis. ELSA assay were carried out using a commercial kit (DEP00, R&D systems) according to manufacturer's instructions.
Characteristics of tested lipid nanoparticles, including hEPO expression levels (μg/ml) measured from the tested group are listed the tables below and plotted in FIG. 2.

[2] = Lipid nanoparticle size by dynamic light scattering (Malvern Zetasizer Nano ZS); assay type: physicochemical; conditions: LNP: cationic lipid/DSPC/cholesterol/PEG-lipid 50:10:38.5:1.5, hEPO mRNA
Method: (§1) Briefly, a cationic lipid provided herein, DSPC, cholesterol, and PEG-lipid were solubilized in ethanol at a molar ratio of 50:10:38.5:1.5, and mRNA were diluted in 10 to 50 mM citrate buffer, pH=4. The LNPs were prepared at a total lipid to mRNA weight ratio of approximately 10:1 to 30:1 by mixing the ethanolic lipid solution with the aqueous mRNA solution at a volume ratio of 1:3 using a microfluidic apparatus, total flow rate ranging from 9-30 mL/min. Ethanol were thereby removed and replaced by DPBS using dialysis. Finally, the lipid nanoparticles were filtered through a 0.2 μm sterile filter.
(§2) Lipid nanoparticle size were determined by dynamic light scattering using a Malvern Zetasizer Nano ZS (Malvern UK) using a 173° backscatter detection mode. The encapsulation efficiency of lipid nanoparticles were determined using a Quant-it Ribogreen RNA quantification assay kit (Thermo Fisher Scientific, UK) according to the manufacturer's instructions.

[3] = Encapsulation efficiency of lipid nanoparticles (Quant-it Ribogreen RNA quantification assay); assay type: physicochemical; conditions: LNP encapsulating hEPO mRNA
Method: as §1, §2

[4] = Apparent pKa of LNP formulations (TNS fluorescence assay); conditions: LNP cationic lipid/DSPC/cholesterol/DMG-PEG 50/10/38.5/1.5 mol %, Table 2
Method: The apparent pKa of each formulation was determined using an assay based on fluorescence of 2-(p-toluidino)-6-napthalene sulfonic acid (TNS). LNP formulations comprising of cationic lipid/DSPC/cholesterol/DMG-PEG (50/10/38.5/1.5 mol %) in PBS were prepared as described above. TNS was prepared as a 300 uM stock solution in distilled water. LNP formulations were diluted to 0.1 mg/ml total lipid in 3 mL of buffered solutions containing 50 mM sodium citrate, 50 mM sodium phosphate, 50 mM sodium borate, and 30 mM sodium chloride where the pH ranged from 3 to 9. An aliquot of the TNS solution was added to give a final concentration of 0.1 mg/ml and following vortex mixing fluorescence intensity was measured at room temperature in a Molecular Devices Spectramax iD3 spectrometer using excitation and mission wavelengths of 325 nm and 435 nm. A sigmoidal best fit analysis was applied to the fluorescence data and the pKa value was measured as the pH giving rise to half-maximal fluorescent intensity.

Structure (SMILES) | Expression at 6 h [1] [µg/mL] | polydispersity ([2]; Table 2) | size nm ([2]; Table 2) [nm] | Encapsulation Efficiency ([3]; Table 2) [%] | Apparant Pka [4] | Expression at 6 h (μg/ml) [1] | polydispersity ([2]; Table 3) | size nm ([2]; Table 3) [nm] | Encapsulation Efficiency ([3]; Table 3) [%]
CCCCCCCCC(CCCCCC)COC(=O)CCCCCN(CCCCCC(=O)OCC(CCCCCC)CCCCCCCC)CCN(CCO)C1CCC1 (centres unmarked) [Compound 1] | 16.21 | 0.168 | 76.5 | 95.7 | 6.40 | – | – | – | –
CCCCCCCCC(CCCCCC)COC(=O)CCCCCN(CCCCCC(=O)OCC(CCCCCC)CCCCCCCC)CCN(CCO)C1CCCCC1 (centres unmarked) [Compound 2] | 6.16 | 0.065 | 75.3 | 96.8 | 6.27 | – | – | – | –
CCCCCCCCC(CCCCCC)COC(=O)CCCCCN(CCCCCC(=O)OCC(CCCCCC)CCCCCCCC)CCN(CCO)C1CCCCCC1 (centres unmarked) [Compound 3] | 2.63 | 0.060 | 58.7 | 96.3 | 6.22 | – | – | – | –
CCCCCCCCC(CCCCCC)COC(=O)CCCCCN(CCCCCC(=O)OCC(CCCCCC)CCCCCCCC)CCN(CCO)C1CC1 (centres unmarked) [Compound 4] | 0.48 | 0.068 | 57.5 | 98.1 | 5.87 | – | – | – | –
CCCCCCCCC(CCCCCC)COC(=O)CCCCCN(CCCCCC(=O)OCC(CCCCCC)CCCCCCCC)CCN(CCO)C1CCCC1 (centres unmarked) [Compound 5] | 0.25 | 0.029 | 54.0 | 96.2 | 6.24 | – | – | – | –
CCCCCCCCC(CCCCCC)COC(=O)CCCCCN(CCCCCC(=O)OCC(CCCCCC)CCCCCCCC)CCN(CCO)C1CCCCCCC1 (centres unmarked) [Compound 6] | 0.00 | 0.109 | 60.5 | 96.6 | 5.88 | – | – | – | –
CCCCCCCCC(CCCCCC)COC(=O)CCCCCN(CCCCCC(=O)OCC(CCCCCC)CCCCCCCC)CCN(CCO)c1ccccc1 (centres unmarked) [Compound 7] | 0.00 | 0.110 | 149.1 | 47.0 | 5.39 | – | – | – | –
CCCCCCCCC(CCCCCC)COC(=O)CCCCCN(CCCCCC(=O)OCC(CCCCCC)CCCCCCCC)CCN(C(=O)CCO)C1CCC1 (centres unmarked) [Compound 8] | 0.00 | 0.065 | 54.7 | 96.9 | 5.84 | – | – | – | –
CCCCCCCCC(CCCCCC)COC(=O)CCCCCN(CCCCCC(=O)OCC(CCCCCC)CCCCCCCC)CCN(CCCO)C1CCCCC1 (centres unmarked) [Compound 9] | 0.86 | 0.106 | 77.6 | 93.3 | 6.01 | – | – | – | –
CCCCCCCCC(CCCCCC)COC(=O)CCCCCN(CCCCCC(=O)OCC(CCCCCC)CCCCCCCC)CCN(CCCO)C1CCCCCC1 (centres unmarked) [Compound 10] | 0.79 | 0.113 | 69.2 | 96.0 | 5.83 | – | – | – | –
CCCCCCCCC(CCCCCC)CNC(=O)CCCCCN(CCCCCC(=O)OCC(CCCCCC)CCCCCCCC)CCN(CCO)C1CCC1 (centres unmarked) [Compound 106] | – | – | – | – | – | A (≥2) | 0.174 | 76.97 | 95.14
CCCCCCCCC(CCCCCC)CNC(=O)CCCCCN(CCCCCC(=O)NCC(CCCCCC)CCCCCCCC)CCN(CCO)C1CCC1 (centres unmarked) [Compound 107] | – | – | – | – | – | A (≥2) | 0.11 | 106.9 | 95.64
CCCCCCCCC(CCCCCC)CNC(=O)CCCCCN(CCCCCC(=O)NCC(CCCCCC)CCCCCCCC)CCN(CCO)C1CCCCCC1 (centres unmarked) [Compound 112] | – | – | – | – | – | C (≥0.1 and <1) | 0.111 | 49.51 | 95.9
CCCCCCCCC(CCCCCC)CNC(=O)CCCCCN(CCCCCC(=O)NCC(CCCCCC)CCCCCCCC)CCN(CCO)C1CC1 (centres unmarked) [Compound 119] | – | – | – | – | – | D (<0.1) | 0.06 | 67.17 | 93.2
CCCCCCCCC(CCCCCC)CNC(=O)NCCCCN(CCCCNC(=O)NCC(CCCCCC)CCCCCCCC)CCN(CCO)C1CCC1 (centres unmarked) [Compound 121] | – | – | – | – | – | B (≥1 and <2) | 0.134 | 71.02 | 94.5
CCCCCCCCNC(=O)CCCCCN(CCCCCC(=O)NCCCCCCCC)CCN(CCO)C1CCCCC1 [Compound 123] | – | – | – | – | – | A (≥2) | 0.285 | 264.9 | 30.1
CCCCCCCCC(CCCCCC)CNC(=O)CCCCCN(CCCCCC(=O)OCC(CCCCCC)CCCCCCCC)CCN(CCO)C1CCCC1 (centres unmarked) [Compound 126] | – | – | – | – | – | A (≥2) | 0.101 | 78.17 | 100.10
CCCCCCCCC(CCCCCC)CNC(=O)CCCCCN(CCCCCC(=O)OCC(CCCCCC)CCCCCCCC)CCN(CCO)C1CCCCC1 (centres unmarked) [Compound 127] | – | – | – | – | – | A (≥2) | 0.111 | 77.12 | 98.70
CCCCCCCCC(CCCCCC)CNC(=O)CCCCCN(CCCCCC(=O)OCC(CCCCCC)CCCCCCCC)CCN(CCO)C1CCCCCC1 (centres unmarked) [Compound 128] | – | – | – | – | – | A (≥2) | 0.107 | 79.73 | 86.10
CCCCCCCCC(CCCCCC)CNC(=O)CCCCCN(CCCCCC(=O)NCC(CCCCCC)CCCCCCCC)CCN(CCO)C1CCCCC1 (centres unmarked) [Compound 129] | – | – | – | – | – | A (≥2) | 0.131 | 63.13 | 91.20
CCCCCCCCC(CCCCCC)CC(=O)NCCCCCN(CCCCCOC(=O)CC(CCCCCC)CCCCCCCC)CCN(CCO)C1CCCC1 (centres unmarked) [Compound 130] | – | – | – | – | – | A (≥2) | 0.097 | 79.92 | 92.50
CCCCCCCCC(CCCCCC)CC(=O)NCCCCCN(CCCCCOC(=O)CC(CCCCCC)CCCCCCCC)CCN(CCO)C1CCCCC1 (centres unmarked) [Compound 131] | – | – | – | – | – | A (≥2) | 0.064 | 79.11 | 80.00
CCCCCCCCC(CCCCCC)CC(=O)NCCCCCN(CCCCCOC(=O)CC(CCCCCC)CCCCCCCC)CCN(CCO)C1CCCCCC1 (centres unmarked) [Compound 132] | – | – | – | – | – | A (≥2) | 0.129 | 70.33 | 88.00
CCCCCCCCC(CCCCCCCC)CNC(=O)CCCCCN(CCCCCC(=O)OCC(CCCCCCCC)CCCCCCCC)CCN(CCO)C1CCCC1 [Compound 136] | – | – | – | – | – | A (≥2) | 0.063 | 61.17 | 94.29
CCCCC/C=C\C/C=C\CCCCCCCCC(CCCCCCCC/C=C\C/C=C\CCCCC)OC(=O)CCCN(C)C [MC3, dilinoleylmethyl-4-dimethylaminobutyrate, reference compound] | 2.35 | 0.042 | 79.8 | 98.5 | – | – | – | – | –
